Measured values from patent US20210338557A1, “Oxidized Derivatives of GDF-11 Fragments” (Avon Products, Inc., priority 2019, published 2021).
Where a SMILES comes first, the peptide text is derived from it. [ ]: non-standard residue; d: D form. Met(O2) = CS(=O)(=O)CC[CH](N)C(=O)O; Met(O) = CS(=O)CC[CH](N)C(=O)O

Experiments:
[1] = system: Human dermal fibroblast cells; experiment: Hyaluronic acid (HA) secretion by human dermal fibroblasts, HTRF HABP kit; format: cell-based; details: 48 h, relative to vehicle control
Method: (§1) Human dermal fibroblast cells were grown in a 96 well plate in DMEM media (available from Corning, N.Y.) supplemented with 10% Fetal Bovine Serum (FBS) and L-glutamine (0.07×10^5 cells/plate). After reaching about 75% confluence, cells were transferred into DMEM media without FBS and incubated for 4-6 hours. Next, cells were treated with a peptide or prodrug thereof (MVV, Ac-MVV) or peptide derivative or prodrug thereof (M(O)2VV, Ac-M(O)2VV, Ac-M(O)VV) at 0.00001%, 0.0001%, 0.0005%, or 0.001% final concentration in DMEM media without FBS for 48 h. After treatment, the media were collected and cell viability was measured using MTT. The amount of collagen or hyaluronic acid (HA) secreted was tested in the media using an HTRF human pro-collagen I kit or an HTRF HABP kit, respectively (each available from Cisbio Inc., Bedford, Mass.).
The results for HA production following administration to the fibroblasts are summarized in Table 13 as percent change of HA production for each active relative to vehicle control. p values are given with respect to the change in HA on the fibroblasts with vehicle control administration or with respect to […] administration.

[2] = system: Human dermal fibroblast cells; experiment: Collagen (pro-collagen I) secretion by human dermal fibroblasts, HTRF human pro-collagen I kit; format: cell-based; details: 48 h, relative to vehicle control
Method: as §1
The results for collagen production following administration to the fibroblasts are summarized in Table 14 as percent change of collagen production for each active relative to vehicle control. p values are given with respect to the change in collagen on the fibroblasts with vehicle control administration or MVV administration.

[3] = system: Human 3D skin EFT400FT tissues; experiment: HA production in full thickness 3D skin cultures, HTRF HABP kit; format: cell-based; details: topical daily for 3 days, n=6
Method: A series of experiments was conducted to assess the effects of peptide derivatives on the production of hyaluronic acid (HA) on full thickness 3D skin cultures. Five different treatment regimens were assessed: (1) 0.01% by weight M(O)2VV in vehicle; (2) 0.002% by weight M(O)2VV in vehicle; (3) 0.01% by weight Ac-M(O)2VV in vehicle; (4) 0.002% by weight Ac-M(O)2VV in vehicle; and (5) vehicle alone (DMSO). Compositions at the indicated weight percentages in DMSO were applied to 3D skin equivalents daily for 3 consecutive days.
Human 3D skin EFT400FT tissues (MatTek, MA) were cultured following the manufacturer's instructions. Each treatment regimen was topically applied to six 3D skin samples. Different 3D skin samples were assigned to one of treatment regimens (1)-(5) as described above, with six skin tissue models allocated to each treatment regimen (i.e., n=6). Following treatment, media were collected and the amount of hyaluronic acid secreted from the cells was measured using a HTRF HABP kit (available from Cisbio Inc., Bedford, Mass.).
The results for HA production are shown in Table 15. p values are given in relation to administration with vehicle control alone or in relation to MVV.

[4] = system: explanted skin tissue; experiment: Ex vivo skin explant HA score (alcian blue stain, image analysis); format: cell-based, human; details: for HA score, Mean: days 0, 1, 2, 5, 7
Method: (§2) Samples of explanted skin tissue were obtained from an abdominal plasty. Samples (33 in total) were maintained in tissue culture medium at 37° C. in a humid, 5% CO2 atmosphere for the duration of the study.
(§3) The skin tissue explants were then distributed into appropriate controls or treated samples in triplicates. The control received only a vehicle (DMSO), and the treatment samples received vehicle comprising either M(O)2VV or Ac-M(O)2VV at 0.0005%, 0.001%, or 0.01% by weight of the composition. Administration of vehicle or vehicle with the peptide occurred on days 0, 1, 2, 5, and 7.
(§4) Stained tissue sections (in triplicates) were examined for qualitative and semi-qualitative differences between treated and control samples and low and high power using Zeiss Mimax and Midi BF microscope and software system. For HA evaluation, samples were washed and processed with Methylthiazolyldiphenyl-tetrazolium bromide (MTT). MTT is converted to water-insoluble dark blue colored MTT-formazan by mitochondrial dehydrogenases. Subsequently the blue crystals have been solubilized and the color intensity, that is directly proportional to skin vitality, has been measured with a plate reader at a wavelength of 570 nm. For each analyzed skin sample the obtained absorbance value has been normalized upon the weight in grams. Twelve skin suctions were stained with an acian blue stain that dyes acid mucins such as hyaluronan to develop the HA score. Dermal collagen was also measured using a picrosirius red histochemical stain that dyes collagen fibers in purple-red. The papillary dermis was selected for the analysis as thi sis the portion of the dermis more subjected to collagen variation in response to treatment.
(§5) 8-bit grey-scale photomicrographs were captured and transformed from RGB to the standard CIE L*a*b* color space. The L* value for each pixel in the ROI was evaluated using ImageJ software (National Institutes of Health, Bethesda, Md.) with the Color Inspector 3D plug-in. The amount of hyaluron present was evaluated based on the intensity and distribution of blue color in the dermis using an imaging method analogous to that used for procollagen I. Scores reflecting the amount of hyaluronan detected were assigned using an image analysis algorithm proprietary to Cutech Srl. Higher HA scores is indicative of a higher HA content. Similarly, the amount of procollagen I was evaluated based on the intensity and distribution of immunostained procollagen I in the area corresponding to the papillary dermis, just below the epidermis. As above, 8-bit grey-scale photomicrographs were captured and transformed from RGB to the standard CIE L*a*b* color space. The L* value for each pixel in the ROI was evaluated using ImageJ software (National Institutes of Health, Bethesda, Md.) with the Color Inspector 3D plug-in. Scores reflecting the amount of procollagen I detected were assigned using an image analysis algorithm proprietary to Cutech Srl.
Columns marked with “**” were highly significant (p<0.05) with respect to untreated samples and with respect to samples administered vehicle alone (DMSO).

[5] = system: explanted skin tissue; experiment: Ex vivo skin explant collagen score (papillary dermis, image analysis); format: cell-based, human; details: for Collagen score, Mean: days 0, 1, 2, 5, 7
Method: as §2, §3, §4, §5
Columns marked with “**” were highly significant (p<0.05) with respect to untreated samples and with respect to samples administered vehicle alone (DMSO.

Row | Compound | HA % change ([1]; 0.00001 wt %) | HA % change ([1]; 0.0001 wt %) | HA % change ([1]; 0.0005 wt %) | HA % change ([1]; 0.001 wt %) | Collagen % change ([2]; 0.00001 wt %) | Collagen % change ([2]; 0.0001 wt %) | Collagen % change ([2]; 0.0005 wt %) | Collagen % change ([2]; 0.001 wt %) | % HA change ([3]; 0.002% (20 ppm) in DMSO) | % HA change ([3]; 0.01% (100 ppm) in DMSO) | HA score % Change Over DMSO ([4]; 5 ppm) | HA score % Change Over Untreated ([4]; 5 ppm) | HA score, Mean ([4]; 5 ppm in DMSO) | HA score % Change Over DMSO ([4]; 10 ppm) | HA score % Change Over Untreated ([4]; 10 ppm) | HA score, Mean ([4]; 10 ppm in DMSO) | HA score % Change Over DMSO ([4]; 100 ppm) | HA score % Change Over Untreated ([4]; 100 ppm) | HA score, Mean ([4]; 100 ppm in DMSO) | Collagen score % Change Over DMSO ([5]; 5 ppm) | also measured
1 | CC(=O)NC(CC[S+](C)[O-])C(=O)NC(C(=O)NC(C(=O)O)C(C)C)C(C)C (stereo not drawn) [Ac-M(O)VV] (Ac-[Met(O)]-Val-Val-OH; configuration not given here) | 17.50% | 16.95% | 17.69% | 21.87% | 7.20% | 4.59% | 14.02% | 13.49% | – | – | – | – | – | – | – | – | – | – | – | – | –
2 | CC(C)C(NC(=O)C(NC(=O)C(N)CCS(C)(=O)=O)C(C)C)C(=O)O (stereo not drawn) [M(O)2VV, methionine sulfone valine valine] (H-[Met(O2)]-Val-Val-OH; configuration not given here) | 14.01% | 17.49% | 10.25% | 19.43% | 5.74% | 12.51% | 1.56% | 6.07% | 6.236% | 10.28% | 18% | 21% | 12 | 14% | 17% | 11.6 | −4% | −1% | 9.8 | −7% | Collagen score % Change Over Untreated ([5]; 5 ppm): −25%; Collagen score, Mean ([5]; 5 ppm in DMSO): 53.6; Collagen score % Change Over DMSO ([5]; 10 ppm): 35%; Collagen score % Change Over Untreated ([5]; 10 ppm): 18%; Collagen score, Mean ([5]; 10 ppm in DMSO): 57.9; Collagen score % Change Over DMSO ([5]; 100 ppm): 13%; Collagen score % Change Over Untreated ([5]; 100 ppm): −5%; Collagen score, Mean ([5]; 100 ppm in DMSO): 55.6
3 | MVV (listed as Homo sapiens) [MW, reference compound] | 5.79% | 1.63% | 3.66% | 9.00% | 7.22% | 10.56% | 31.22% | 6.22% | – | – | – | – | – | – | – | – | – | – | – | – | –
4 | CC(=O)NC(CCS(C)(=O)=O)C(=O)NC(C(=O)NC(C(=O)O)C(C)C)C(C)C (stereo not drawn) [Ac-M(O)2VV] (Ac-[Met(O2)]-Val-Val-OH; configuration not given here) | 10.33% | 7.31% | 7.90% | 11.04% | 12.29% | 11.29% | −0.56% | 13.65% | 1.386% | 12.47% | −7% | −4% | 9.5 | 25% | 28% | 12.7 | 9% | 12% | 11.1 | 73% | Collagen score % Change Over Untreated ([5]; 5 ppm): 57%; Collagen score, Mean ([5]; 5 ppm in DMSO): 61.7; Collagen score % Change Over DMSO ([5]; 10 ppm): 75%; Collagen score % Change Over Untreated ([5]; 10 ppm): 59%; Collagen score, Mean ([5]; 10 ppm in DMSO): 61.9; Collagen score % Change Over DMSO ([5]; 100 ppm): 52%; Collagen score % Change Over Untreated ([5]; 100 ppm): 35%; Collagen score, Mean ([5]; 100 ppm in DMSO): 59.6
